The results in this text go back to patent US20250333398A1, “MONOARYL AND HETARYL SUBSTITUTED INDAZOLES AND BENZIMIDAZOLES AS STING ANTAGONISTS AND THE USE THEREOF AS MEDICAMENT” (Boehringer Ingelheim International GmbH, priority 2024, published 2025).

For test [1], the target named is T1, human STING WT (R232).
T1 construct: purchased Cisbio 64BDSTGPEG
Put plainly: Human STING HTRF binding assay (competitive, Cisbio 64BDSTGPEG). The note with it: 6His tagged human STING WT R232, competition with STING ligand-d2. The protocol:
Binders to human STING WT (R232) were identified using a competitive HTRF assay format (Cisbio 64BDSTGPEG), which uses d2-labeled STING ligand, a 6His tagged human STING protein, and an anti 6His Cryptate-labeled antibody. Compounds compete with the STING ligand-d2 and thereby prevents FRET from occurring, which can be measured by an EnVision™ reader (PerkinElmer).
Assay method: Compounds were delivered as 10 mM DMSO solution, serially diluted by an Agilent Bravo Workstation and transferred to the 384 well assay plate (Perkin Elmer #6005359) using a Cybiwell dispenser. Typically, 8 concentrations were used with the highest concentration at 10 μM or 1 μM in the final assay volume followed by ^˜1:5 dilution steps. DMSO concentration was set to 1% in the final assay volume. The 384 well assay plate contained 20 test compounds and DMSO in column 23 and 24. A cGAMP standard dilution row was prepared according to the manufacturer and transferred to each assay plate. After transfer of compound solution or dilution buffer for negative (high) and positive (low) controls, 5 μl of the human STING protein (cyclic binding domain (residues 138-379) of the WT R232 human version, fused to a 6 His tag at the Nter part; 1:50 dilution in detection buffer) were dispensed to all wells except of the positive control, which received detection buffer only. Plates were the centrifuged for 20 sec at 1000 rpm. After that, 10 μl of Anti-6His-Cryptate antibody/Sting ligand-d2 mix was added to all wells using a Multidrop combi dispenser, followed by another 20 sec/1000 rpm centrifugation step. After an incubation of the plates for 180 min at room temperature, […] at […] (HTRF ratio) was measured using an Envison Reader (PerkinElmer)
Data evaluation and calculation: For data evaluation and calculation, HTRF ratios were calibrated using the cGAMP standard curve. After that, the measurement of the low control was set as 0% control and the measurement of the high control was set as 100% control. The IC50 values were calculated using the standard 4 parameter logistic regression formula. Calculation: [y=(a−d)/(1+(x/c)^b)+d], a=low value, d=high value; x=conc M; c=IC50 M; b=slope;

Test [2] concerns T2, STING.
T2 construct: from tissue; host or cells: human whole blood from healthy donors
Put plainly: Human whole blood assay (HWBA), cGAMP-stimulated IFNα2α production. The test is classed as cell-based. The following applies: human whole blood stimulated by cGAMP. As for the experimental part: For the detection of STING inhibition in physiological environment human whole blood was stimulated by the cyclic dinucleotide cGAMP. Pathway activity was monitored by measuring the IFNα2α production.
Assay method: Compounds were delivered as 10 mM DMSO solution and serial diluted and transferred to the 96-well Cell culture Plate (Corning #3595), prefilled with 20 μl OptiMEM (Gibco #11058-021) in each well, using an Echo acoustic dispenser. Typically, 8 concentrations were used with the highest concentration at 10 μM in the final assay volume followed by ^˜1:5 dilution steps. DMSO concentration was set to 0.1% in the final assay volume. The 96 well assay plate contained 9 test compounds, a reference compound and DMSO in control wells.
Collection of human whole blood from 3 or more healthy donors (male or female, no medication for 7 days, exception contraceptive and thyroxine) as Na-citrate blood (e.g. 3.8% in Monovettes from Sarstedt) is conducted in parallel. Whole blood was kept at room temperature for a maximum of 3 hours after collection until use in the assay.
160 μl of the whole blood samples were transferred to each well of the 96-well assay plates filled with compound/OptiMEM. All assay plates are prepared as duplicates with blood from different donors. Blood plates were kept at room temperature for 60 minutes and continuous shaking with 450 rpm, covered with the lid, but not sealed.
A 10× cGAMP assay solution was diluted from a 2 mM stock solution in 1×HBSS immediately before use at room temperature. 20 μl of the 10× cGAMP/HBSS were added to all compound and all high control wells, whereas HBSS only was added to all low control wells.
After covering assay plates with aera seals and the lid, blood plates were kept at room temperature for 30 minutes and continuous shaking with 450 rpm, followed by an overnight incubation of 22 h at 37° C. in the incubator, without shaking.
For the detection of IFNα-2α in human plasma, the biotinylated capture antibody (Antibody set IFNA2, Meso Scale Diagnostics #B21VH-3, including coating and capture antibody) was diluted 1:17.5 in Diluent 100 (Meso Scale Diagnostics #R50AA-4, according to the manufacturer. U-Plex MSD GOLD 96-well Small Spot Streptavidin SECTOR Plates (Meso Scale Diagnostics #L45SA-5) were coated with 25 μl diluted capture antibody. Coated plates were incubated for 60 min at room temperature under continuous shaking at 700 rpm. MSD IFNα-2α plates were washed three times with 150 μl wash buffer (1×HBSS, 0.05% Tween).
After blocking the plates with 100 μl block solution/well (1×HBSS with 0.2% Tween, 2% BSA) for 60 min at room temperature and continuous shaking at 700 rpm, plates were emptied as dry as possible by dumping just before continuing with the human plasma. Whole Blood assay plates were centrifuged at 1600 rpm for 10 minutes. 25 μl of supernatant was transferred with a pipetting robotics from each whole blood plate to the corresponding IFNα-2α plate. Plates were sealed with microplate seals and kept at room temperature again under continuous shaking at 700 rpm for two hours. Next MSD IFNα-2α plates were washed three times with 150 μl wash buffer (1×HBSS, 0.05% Tween), before adding 25 μl MSD SULFO-TAG IFNα-2α Antibody solution (1:100 diluted in Diluent 3 (Meso Scale Diagnostics #R50AP-2) to each well of the plates. Afterwards plates were sealed with microplate seals and kept at room temperature again under continuous shaking at 700 rpm for two hours. Finally, MSD IFNα-2α plates were washed three times with 150 μl wash buffer (1×HBSS, 0.05% Tween). 150 μl 2× Read buffer was added to each well and plates were immediately measured with the MSD Sector S600 Reader using the vendor barcode.
Data evaluation and calculation: For data evaluation and calculation, % control calculation of each well was based on the mean of high (cGAMP stimulated control) and mean of low (unstimulated control) controls by using the following formula: […]

Each structure is given as a SMILES string.

With `CCP(=O)(CC)c1ccc(-c2nc(-c3cccc4nn(-c5cc(C(F)(F)F)n(C)n5)cc34)c(C3CC3)n2C)c(OC(F)(F)F)c1` [Example 17, 4-{5-cyclopropyl-2-[4-(diethylphosphoryl)-2-(trifluoromethoxy)phenyl]-1-methyl-1H-imidazol-4-yl}-2-[1-methyl-5-(trifluoromethyl)-1H-pyrazol-3-yl]-2H-indazole], the figures for the 50% inhibitory concentration (IC50) in test [1] and in test [2] were 48.1 nM and 89 nM, respectively.
For `CC[P@](C)(=O)c1ccc(-c2nc(-c3cccc4nn(-c5cc(C6CC6)n(C)n5)cc34)c(C3CC3)n2C)c(OC(F)(F)F)c1` [Example 19, 2-(5-cyclopropyl-1-methyl-1H-pyrazol-3-yl)-4-(5-cyclopropyl-2-{4-[(S)-ethyl(methyl)phosphoryl]-2-(trifluoromethoxy)phenyl}-1-methyl-1H-imidazol-4-yl)-2H-indazole], the 50% inhibitory concentration (IC50) (as a rule, the midpoint of a concentration-inhibition curve) came to 18 nM in test [1] and 140 nM in test [2].
In the case of `CC[P@](C)(=O)c1ccc(-c2nc(-c3cccc4nn(-c5cn(C6CC6)nc5OC)cc34)c(C3CC3)n2C)c(OC(F)(F)F)c1` [Example 14, 4-(5-cyclopropyl-2-{4-[(S)-ethyl(methyl)phosphoryl]-2-(trifluoromethoxy)phenyl}-1-methyl-1H-imidazol-4-yl)-2-(1-cyclopropyl-3-methoxy-1H-pyrazol-4-yl)-2H-indazole], the IC50 in test [1] was 6.49 nM; in test [2] it was 11 nM.
As for `CC[P@](C)(=O)c1ccc(-c2nc(-c3cccc4[nH]c(-c5cc(C(F)(F)F)n(C)n5)nc34)c(C3CC3)n2C)c(OC(F)(F)F)c1` [Example 18, 4-(5-cyclopropyl-2-{4-[(S)-ethyl(methyl)phosphoryl]-2-(trifluoromethoxy)phenyl}-1-methyl-1H-imidazol-4-yl)-2-[1-methyl-5-(trifluoromethyl)-1H-pyrazol-3-yl]-1H-1,3-benzodiazole], the figures for the IC50 in test [1] and in test [2] were 26.5 nM and 87 nM, respectively.
